We go through 11 molecules from ChEMBL document CHEMBL1201862, “PubChem BioAssay data set” (2004).

Test systems include SW-620; LOX IMVI; 786-0; HL-60; COLO 205; SF-268; K562; DU-145; MOLT-4; CCRF-CEM; Hs-578T; SF-539; SR; SNB-75; OVCAR-4; OVCAR-5; UACC-62; SK-OV-3; Malme-3M; RXF 393.
Common to all, as to experiment: growth of human tumour cells (NCI), 48 h

Structures are written as SMILES.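 In this assay, cells in 96-well plates receive the compound at five concentrations for 48 hours. Endpoints are linearly interpolated between the surrounding concentrations. GI50 marks 50% less growth.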 Calls of active or inactive are those of the source. Cut-off read from the data, not from the text of the source: active = GI50 up to about 1.1 µM and inactive = higher. Bounds are passed on as bounds.

As for `CC1NC(=O)C2Cc3ccc(O)c(c3)Oc3ccc(cc3)C(O)C(C(=O)N2C)N(C)C(=O)C(C)NC(=O)C(Cc2ccc(O)cc2)N(C)C(=O)C(C)NC1=O` (stereo not drawn), the GI50 in the experiment with SW-620 is 23.4 µM (inactive); with LOX IMVI it was 5.43 µM (inactive); in the experiment on 786-0 it was 38 µM (inactive); with HL-60, 13.9 µM (inactive); with COLO 205, 79.6 µM (inactive); with SF-268, 4.03 µM (inactive). The GI50 is > 100 µM (inactive) in the experiment on K562; 32.4 µM (inactive) with DU-145; 19.4 µM (inactive) in the experiment on MOLT-4; 9.71 µM (inactive) with CCRF-CEM; 5.09 µM (inactive) with Hs-578T; 6.71 µM (inactive) in the experiment on SF-539. The GI50 is 10.7 µM (inactive) in the experiment on SR; 3.67 µM (inactive) in the experiment with SNB-75; 35.1 µM (inactive) with OVCAR-4; 42.6 µM (inactive) in the experiment with OVCAR-5; 19.5 µM (inactive) in the experiment on UACC-62.

As to `COc1ccc(C2SCC(=O)N2NC2=NC(=O)CC(=O)N2)cc1` (stereo not drawn), the GI50 with SW-620, with SK-OV-3, in the experiment on 786-0, in the experiment on COLO 205, in the experiment with SF-268 and in the experiment with K562 was > 100 µM (inactive) in each case. Besides, the GI50 in the experiment on DU-145, with MOLT-4, with CCRF-CEM, in the experiment with Malme-3M, with Hs-578T and in the experiment with RXF 393 was > 100 µM (inactive) in each case. Moreover, the GI50 in the experiment with SF-539, in the experiment with SR, in the experiment with SNB-75, in the experiment with OVCAR-4, in the experiment on OVCAR-5 and with UACC-62 was > 100 µM (inactive) throughout.

`CC(C)(C)OC(=O)Cn1ncn(NC(=O)Cc2ccccc2)c1=S`: the GI50 in the experiment with SW-620, with SK-OV-3, with LOX IMVI, in the experiment with 786-0, in the experiment with COLO 205 and in the experiment with SF-268 was > 10 µM (inactive) throughout. The GI50 in the experiment on K562, in the experiment with DU-145, in the experiment on MOLT-4, in the experiment with CCRF-CEM, with Malme-3M and in the experiment on Hs-578T was > 10 µM (inactive) each time. Also, the GI50 in the experiment on SF-539, in the experiment with SR, in the experiment with SNB-75, in the experiment with OVCAR-4, in the experiment on OVCAR-5 and with UACC-62 was > 10 µM (inactive) throughout.

For the molecule `C=CCNC(=S)N/N=C1\C(=O)N(CN2CCOCC2)c2ccc([N+](=O)[O-])cc21`, the GI50 is 61.5 µM (inactive) with SW-620; 36.5 µM (inactive) with SK-OV-3; 32.3 µM (inactive) with LOX IMVI; 15.6 µM (inactive) in the experiment with 786-0; 24.6 µM (inactive) with HL-60; 34.4 µM (inactive) in the experiment on COLO 205. In addition, the GI50 was 58.6 µM (inactive) with SF-268; 18.9 µM (inactive) in the experiment with K562; 18.7 µM (inactive) in the experiment on DU-145; 5.98 µM (inactive) in the experiment on MOLT-4; 2.7 µM (inactive) with CCRF-CEM; > 100 µM (inactive) in the experiment with Malme-3M. For the same molecule, the GI50 in the experiment on Hs-578T was > 100 µM (inactive); with RXF 393, > 100 µM (inactive); in the experiment with SF-539, 51.6 µM (inactive); in the experiment on SNB-75 it was 24.3 µM (inactive); with OVCAR-4 it was 22.7 µM (inactive); in the experiment on OVCAR-5 it was 56.2 µM (inactive). In addition, in the experiment with UACC-62, the GI50 is > 100 µM (inactive).

`COc1ccc2c(c1)-c1c(c3cc(OC)ccc3n1CCN(C)C)CC2`: the GI50 was 15.2 µM (inactive) with SW-620; 21.5 µM (inactive) in the experiment on SK-OV-3; 10.8 µM (inactive) in the experiment on 786-0; 12.2 µM (inactive) in the experiment on COLO 205; 18.3 µM (inactive) in the experiment on SF-268; 6.81 µM (inactive) in the experiment with K562. The GI50 with DU-145 is 13.7 µM (inactive); in the experiment on MOLT-4, 10.7 µM (inactive); in the experiment on CCRF-CEM it was 6.35 µM (inactive); with Malme-3M it was 16.1 µM (inactive); in the experiment with Hs-578T, 13.7 µM (inactive); with RXF 393, 13.5 µM (inactive). Besides, the GI50 was 15.4 µM (inactive) in the experiment with SF-539; 7.03 µM (inactive) with SR; 21.9 µM (inactive) in the experiment on SNB-75; 17.1 µM (inactive) in the experiment on OVCAR-4; 15.7 µM (inactive) in the experiment on OVCAR-5; 10.9 µM (inactive) in the experiment on UACC-62.

Regarding `COc1c(C)c(C/C=C(\C)CCCCO[Si](C(C)C)(C(C)C)C(C)C)c(OC)c2ccccc12`, the GI50 in the experiment on SW-620, in the experiment on SK-OV-3, in the experiment with LOX IMVI, in the experiment on 786-0, in the experiment on COLO 205 and in the experiment on SF-268 was > 100 µM (inactive) throughout. The GI50 with K562 is > 100 µM (inactive); in the experiment on DU-145 it was > 100 µM (inactive); with MOLT-4, 47.6 µM (inactive); in the experiment with CCRF-CEM it was 49 µM (inactive); with Hs-578T, > 100 µM (inactive); with RXF 393, > 100 µM (inactive). Also, the GI50 in the experiment with SF-539 is > 100 µM (inactive); in the experiment with SR, 70.1 µM (inactive); in the experiment with SNB-75, > 100 µM (inactive); with OVCAR-4 it was > 100 µM (inactive); in the experiment with OVCAR-5, > 100 µM (inactive); with UACC-62 it was > 100 µM (inactive).

Consider `CN(NC(=O)/C(=C/C=C/c1ccccc1)NC(=O)c1ccccc1)C1=C(Cl)C(=O)[N+](c2ccccc2)=CC1`, for which the GI50 in the experiment on SW-620 was 16.4 µM (inactive); with SK-OV-3, > 100 µM (inactive); in the experiment on LOX IMVI, 17.3 µM (inactive); with 786-0, 19.4 µM (inactive); in the experiment on COLO 205 it was 17.5 µM (inactive); in the experiment on SF-268, 29.6 µM (inactive). For the same molecule, the GI50 in the experiment on K562 is 19.9 µM (inactive); with DU-145 it was 33 µM (inactive); with MOLT-4, 24.3 µM (inactive); with Malme-3M it was 37.9 µM (inactive); with Hs-578T, 42.7 µM (inactive); with RXF 393, 20.1 µM (inactive). Besides, the GI50 in the experiment on SF-539 is 19.7 µM (inactive); in the experiment on SR, 21.4 µM (inactive); with SNB-75, 21.6 µM (inactive); with OVCAR-4, 22.4 µM (inactive); in the experiment with OVCAR-5, > 100 µM (inactive).

As to `CSC1(CC(=O)N(C)C)C(=O)Nc2ccccc21` (stereo not drawn), the GI50 with SW-620, in the experiment on SK-OV-3, in the experiment on LOX IMVI, with 786-0, in the experiment on COLO 205 and with SF-268 was > 100 µM (inactive) each time. Moreover, the GI50 with K562, in the experiment on DU-145, in the experiment on MOLT-4, with Malme-3M, with Hs-578T and with SF-539 was > 100 µM (inactive) throughout. The GI50 in the experiment on SR, with SNB-75, in the experiment with OVCAR-4, with OVCAR-5 and with UACC-62 was > 100 µM (inactive) each time.

For `CCOP(=O)(OCC)/C(C#N)=C/c1ccnc2ccccc12`, the GI50 in the experiment with SW-620 was 27.3 µM (inactive); with SK-OV-3 it was 36.2 µM (inactive); in the experiment on LOX IMVI, 31.6 µM (inactive); in the experiment on 786-0, 20.4 µM (inactive); with COLO 205, 18.1 µM (inactive); in the experiment with SF-268, 18.4 µM (inactive). Further, the GI50 with DU-145 was 34.8 µM (inactive); in the experiment with MOLT-4 it was > 100 µM (inactive); in the experiment on Malme-3M it was 14 µM (inactive); in the experiment with Hs-578T it was 23.7 µM (inactive); in the experiment on RXF 393 it was 23.2 µM (inactive); with SF-539, 26.5 µM (inactive). For the same molecule, the GI50 is 21.9 µM (inactive) in the experiment on SR; 25.9 µM (inactive) in the experiment on SNB-75; 32.6 µM (inactive) in the experiment with OVCAR-4; 22.5 µM (inactive) in the experiment with OVCAR-5; 26.1 µM (inactive) in the experiment with UACC-62.

For `CSc1cc(Cl)c(C)cc1S(=O)(=O)NC(=O)NNc1ccc(F)cc1`, the GI50 with SW-620, with SK-OV-3, with LOX IMVI, with 786-0, in the experiment on COLO 205 and with SF-268 was > 100 µM (inactive) throughout. For the same molecule, the GI50 with K562, in the experiment with DU-145, in the experiment with MOLT-4, with Malme-3M, with Hs-578T and in the experiment with RXF 393 was > 100 µM (inactive) in each case. Also, the GI50 in the experiment with SF-539, with SR, in the experiment with SNB-75, in the experiment on OVCAR-4 and with OVCAR-5 was > 100 µM (inactive) in each case.

As to `C/C(=N\Nc1nc2ccccc2s1)c1cccnn1`, the GI50 was 3.69 µM (inactive) in the experiment on SW-620; 4.29 µM (inactive) in the experiment on SK-OV-3; 1.26 µM (inactive) in the experiment on 786-0; 2.48 µM (inactive) in the experiment on COLO 205; 1.56 µM (inactive) with SF-268; 3.23 µM (inactive) in the experiment on K562. For the same molecule, the GI50 was 1.92 µM (inactive) in the experiment with DU-145; 3.91 µM (inactive) in the experiment with MOLT-4; 0.381 µM (active) in the experiment on CCRF-CEM; 12.1 µM (inactive) with Hs-578T; 17.1 µM (inactive) in the experiment with RXF 393; 3.55 µM (inactive) in the experiment with SF-539. In addition, the GI50 was 0.476 µM (active) in the experiment with SR; 5.5 µM (inactive) in the experiment with SNB-75; 76 µM (inactive) with OVCAR-4; 4.02 µM (inactive) in the experiment on OVCAR-5; 2.7 µM (inactive) with UACC-62.
